# Assay results taken from US20250051301A1, “MUTANT IDH1 AND IDH2 INHIBITOR AND APPLICATION THEREOF” (Betta Pharmaceuticals Co., Ltd, priority 2022, published 2025).
# Experiments:
# [1] = target: T1, IDH1^R132H (Homo sapiens, UniProt O75874, R132H); assay: 2-HG assay in cells (U87 cell line stably transfected with IDH1-R132H); type: cell-based; conditions: 72 hours, numeric values, read-out: 2-HG in medium (IC50, nM) (IDH1^R132H)
# Description: The compounds were detected for the inhibition of 2-HG production in the U87 cell line stably transfected with IDH1-R132H and the culture supernatant of TF-1 cells stably transfected with IDH2-R140Q. • (1) The cultured cells were collected by centrifugation, then suspended in a cell culture solution, counted, and seeded in a 96-well cell culture plate at 160 μL of cell suspension/well (20000 cells/well for U87-IDH1-R132H; 10000 cells/well for TF-1-IDH2-R140Q). • (2) A 96-well plate dilution was taken, and the compounds to be tested were diluted in a gradient manner in DMSO and a cell culture solution; and then 40 μL of the gradient-diluted compounds to be tested were added to the 96-well plate on which cells have been plated. […] Finally, the plate was cultured in a 37° C. incubator containing 5% CO2. • (3) After the compounds were incubated with the cells for 72 hours, the cell culture plate was taken out and centrifuged at 1500 rpm for 5 minutes, and then 100 μL of the medium supernatant was aspirated for 2-HG detection. • (4) 2-HG detection: the cell supernatant was diluted with purified water, 30 μL of the diluted sample was taken into a 1.5 ml centrifuge tube, and 200 μL of the internal standard solution was added. The mixture was mixed uniformly by vortex and centrifuged at 3200 rpm at 4° C. for 15 minutes. 100 μL of the supernatant solution was diluted with water at a 1:1 ratio and then detected by LC-MS. Analyte Peak Area was used to represent the 2-HG levels. • (5) Inhibition rate calculation, formula: % Inhibition=(1−Analyte Peak Area_sample/Analyte Peak Area_max)*100%, wherein Analyte Peak Area_sample represents the Analyte Peak Area of the sample to which the compound was added; Analyte Peak Area_max represents the average value of Analyte Peak Area of positive control wells (representing the absence of the compound). The curve fitting was performed using Graphpad Prism software to obtain IC50 values, and the test results were as shown in table 2.
# [2] = Pharmacokinetic detection in dogs; type: in vivo; conditions: beagle dogs
# Description: Adult beagle dogs (6-12 months of age) received a single dose of the compounds to be tested via intravenous administration (IV) or oral gavage administration (PO), respectively. In the IV single dose, 5% DMSO+5% Solutol+90% physiological saline was used as the excipient; the intravenous administration was carried out at a dose of 1 mg/kg (2 females and 2 males); and the venous blood collection time was 5 min, 15 min, 0.5 h, 1 h, 2 h, 4 h, 6 h, 8 h, 10 h and 24 h. In the PO single dose, 5% DMSO+5% Solutol+90% purified water was used as the excipient; the oral gavage administration was carried out at a dose of 5 mg/kg (2 females and 2 males); and the blood collection time was 15 min, 0.5 h, 1 h, 2 h, 4 h, 6 h, 8 h, 10 h and 24 h. Blood samples were collected in tubes containing EDTA anticoagulants and centrifuged at 4000 rpm at 4° C. for 10 min, and the supernatants were transferred to centrifuge tubes and stored at −20° C. For the detection, 30 μL of the plasma supernatant sample was taken, and 200 μL of an internal standard solution was added. The mixture was centrifuged at 3000 rpm for 10 minutes. Then, 100 μL of the supernatant solution was diluted with water at a 1:1 ratio and then injected with an injection volume of 5 μL. The concentration of the compounds to be tested in the plasma sample was analyzed by liquid chromatography-tandem mass spectrometry (LC-MS/MS). Plasma concentration-time data for individual animals were analyzed using Sciex Analyst software. The non-compartment model was introduced into the concentration analysis, and pharmacokinetic parameters (Cl_obs, Cmax and AUClast) of the compounds to be tested were calculated using WinNonlin (version 4.1; pHarsight) software.
# [3] = target: T1, IDH1^R132H; assay: Enzyme activity inhibition assay (fluorescence-based), IDH1 R132H; type: biochemical; conditions: numeric values
# Description: The inhibitory ability of the compounds on the enzyme activities of IDH1^R132H and IDH2^R140Qwas detected and expressed as the half inhibitory concentration (IC50) value. AG-881 was used as a positive control compound. In this experiment, compounds were screened on enzymes IDH1^R132H and IDH2^R140Q using a fluorescence-based method (initial concentration: 10000 nM, 3-fold dilution, 10 concentrations, and single-well detection). • (1) Preparation of 1×assay buffer. • (2) Preparation of compound concentration gradient: the compounds to be tested were assayed at an initial concentration of 10000 nM, with 3-fold dilution and 10 concentrations, and diluted into 200-fold the final concentration in 100% DMSO solution in a 384-well plate. • (3) 250 nL of DMSO and 250 nL of diluted compounds were transferred to a reaction plate with Echo 550. • (4) IDH2^R140Q enzyme detection: 25 μL of an IDH2^R140Q enzyme solution was added, and the mixture was incubated for 60 minutes; then 25 μL of a substrate solution was added, and the mixture was incubated for 150 minutes; then 25 μL of a detection buffer was added, and the mixture was shaken for 1 minute and incubated for 60 minutes; and finally, Synergy 2, Ex544/Em590 cutoff 590 was used for reading. • (5) IDH1^R132H enzyme detection: 40 μL of a mixture solution of an IDH1^R132H enzyme at the 1.25-fold final concentration and NADPH was added, and the mixture was incubated for 60 minutes; then 10 μL of a substrate solution at the 5-fold final concentration was added, and the mixture was incubated for 90 minutes; then 25 μL of a detection buffer at the 3-fold final concentration was added, and the mixture was shaken for 1 minute. and finally, Synergy 2, Ex544/Em590 cutoff 590 was used for reading. • (8) Inhibition rate calculation, formula: % Inhibition=(RFU_sample−RFU_min)/(RFU_max−RFU_min)*100%, wherein RFU-sample represents the fluorescence intensity of a sample; RFU-min represents the average value of negative control wells and represents the fluorescence intensity with an enzyme; and RFU-max represents the average value of positive control wells and represents the fluorescence intensity without an enzyme. The curve fitting was performed using Graphpad Prism software to obtain IC50 values, and the test results were as shown in table 2.
# [4] = both sexes, dog, plasma, PO, 5 mg/kg
# T1 sequence (O75874 whole entry R132H): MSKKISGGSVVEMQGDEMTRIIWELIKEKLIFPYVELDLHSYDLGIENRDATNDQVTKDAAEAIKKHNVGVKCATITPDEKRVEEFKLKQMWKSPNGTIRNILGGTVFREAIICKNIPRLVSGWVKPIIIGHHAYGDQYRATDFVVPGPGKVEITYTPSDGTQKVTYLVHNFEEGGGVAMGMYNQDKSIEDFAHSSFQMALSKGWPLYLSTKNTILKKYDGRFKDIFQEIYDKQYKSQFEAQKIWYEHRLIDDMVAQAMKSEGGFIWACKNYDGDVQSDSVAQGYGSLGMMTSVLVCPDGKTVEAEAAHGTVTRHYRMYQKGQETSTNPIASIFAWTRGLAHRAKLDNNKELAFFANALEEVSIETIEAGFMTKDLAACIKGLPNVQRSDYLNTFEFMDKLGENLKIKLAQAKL
compound,measurement,setting,value
"C[C@@H](Nc1nc(N[C@H](C)C(F)(F)F)nc(-c2cc(F)c(N)c(Cl)n2)n1)C(F)(F)F [Example 5, 6-(5-amino-6-chloro-4-fluoropyridin-2-yl)-N^2,N^4-bis((R)-1,1,1-trifluoropropyl-2-yl)-1,3,5-triazine-2,4-diamine]",IC50,[1],0.5 nM
same,Cl_obs,"[2]; IV, 1 mg/kg",5.1 mL/min/kg
same,AUC(0-t),"[2]; both sexes, dog, plasma, IV, 1 mg/kg",2630 ng·h/mL
same,AUC(0-t),[2]; [4],11700 ng·h/mL
same,Cmax,[2]; [4],1160 ng/mL
same,IC50,[3],8 nM
